From ChEMBL document CHEMBL3885861, “Open TG-GATES”

Organism: Rattus norvegicus
Assay: Open TG-GATES - Regimen: Daily Repeat
Assay type: toxicity, organism-based, Sprague-Dawley
Design: regimen Daily Repeat, gender Male, age 6 weeks
Conditions: in vivo, po, 0 mg/kg, […], route gavage, dose level Control; for KIDNEY_L / KIDNEY_R / KIDNEY_TOTAL: tissue Kidney; for LIVER: tissue Liver; for A/G / ALP / ALT / AST / BUN / CRE / Ca / Cl / DBIL / GLC / IP / K / LDH / Na / PL / RALB / TBIL / TC / TG / TP / gamma-GTP: tissue Plasma

Work on O=C(O)c1cc(/N=N/c2ccc(S(=O)(=O)Nc3ccccn3)cc2)ccc1O [SULFASALAZINE] yielded a Lym (tissue Blood, time 28 day) of 83.8%, an MCH (tissue Blood, time 28 day) of 20.1 pg and an MCHC (tissue Blood, time 28 day) of 36.2%. It also gave an MCV (tissue Blood, time 28 day) of 55.6 fL, a Mono (tissue Blood, time 28 day) of 1.4% and a Neu (tissue Blood, time 28 day) of 12.4%. It also gave a PT (tissue Blood, time 28 day) of 12.5 s, a Plat (tissue Blood, time 28 day) of 98.7 x10_4/uL and an RBC (tissue Blood, time 28 day) of 775.4 x10_4/ul. It also gave a Ret (tissue Blood, time 28 day) of 2.3%, a WBC (tissue Blood, time 28 day) of 97.9 x10_2/uL and a KIDNEY_L (time 7 day) of 1.1 g. It also gave a KIDNEY_R (time 7 day) of 1.1 g, a KIDNEY_TOTAL (time 7 day) of 2.2 g and a KIDNEY_L (time 14 day) of 1.2 g. It also gave a KIDNEY_R (time 14 day) of 1.2 g, a KIDNEY_TOTAL (time 14 day) of 2.4 g and a KIDNEY_L (time 28 day) of 1.3 g. The KIDNEY_R (time 28 day) was 1.3 g, the KIDNEY_TOTAL (time 28 day) was 2.5 g and the LIVER (time 7 day) was 12 g. The LIVER (time 14 day) was 13.3 g, the LIVER (time 28 day) was 14.8 g and the A/G (time 7 day) was 1.4. It also gave an ALP (time 7 day) of 884.4 IU/L, an ALT (time 7 day) of 33 IU/L and an AST (time 7 day) of 64.6 IU/L. For the same compound, the BUN (time 7 day) was 16.8 mg/dL, the CRE (time 7 day) was 0.4 mg/dL and the Ca (time 7 day) was 10.7 mg/dL. It also gave a Cl (time 7 day) of 103.4 meq/L, a DBIL (time 7 day) of 0.092 mg/dL and a GLC (time 7 day) of 233.6 mg/dL. It also gave an IP (time 7 day) of 7.5 mg/dL, a K (time 7 day) of 3.5 meq/L and an LDH (time 7 day) of 218.6 IU/L. For the same compound, the Na (time 7 day) was 140.8 meq/L, the PL (time 7 day) was 160.4 mg/dL and the RALB (time 7 day) was 3.4 g/dL. It also gave a TBIL (time 7 day) of 0.1 mg/dL, a TC (time 7 day) of 78.8 mg/dL and a TG (time 7 day) of 99.8 mg/dL. The TP (time 7 day) was 5.9 g/dL, the gamma-GTP (time 7 day) was 1.2 IU/L and the A/G (time 14 day) was 1.3. The ALP (time 14 day) was 900.6 IU/L, the ALT (time 14 day) was 43.4 IU/L and the AST (time 14 day) was 76.6 IU/L. It also gave a BUN (time 14 day) of 18.6 mg/dL, a CRE (time 14 day) of 0.5 mg/dL and a Ca (time 14 day) of 10.6 mg/dL. It also gave a Cl (time 14 day) of 103.4 meq/L, a DBIL (time 14 day) of 0.1 mg/dL and a GLC (time 14 day) of 189.8 mg/dL. The IP (time 14 day) was 6.4 mg/dL, the K (time 14 day) was 3.8 meq/L and the LDH (time 14 day) was 292 IU/L. The Na (time 14 day) was 140.4 meq/L, the PL (time 14 day) was 155 mg/dL and the RALB (time 14 day) was 3.3 g/dL. It also gave a TBIL (time 14 day) of 0.2 mg/dL, a TC (time 14 day) of 63.2 mg/dL and a TG (time 14 day) of 175.8 mg/dL. The TP (time 14 day) was 6 g/dL, the gamma-GTP (time 14 day) was 1.2 IU/L and the A/G (time 28 day) was 1.3. The ALP (time 28 day) was 718.2 IU/L, the ALT (time 28 day) was 49.2 IU/L and the AST (time 28 day) was 80.6 IU/L. The BUN (time 28 day) was 17.8 mg/dL, the CRE (time 28 day) was 0.5 mg/dL and the Ca (time 28 day) was 10.3 mg/dL. For the same compound, the Cl (time 28 day) was 103.6 meq/L, the DBIL (time 28 day) was 0.1 mg/dL and the GLC (time 28 day) was 217.6 mg/dL. The IP (time 28 day) was 6.1 mg/dL, the K (time 28 day) was 3.7 meq/L and the LDH (time 28 day) was 287.2 IU/L. For the same compound, the Na (time 28 day) was 141.2 meq/L, the PL (time 28 day) was 148.4 mg/dL and the RALB (time 28 day) was 3.4 g/dL. For the same compound, the TBIL (time 28 day) was 0.2 mg/dL, the TC (time 28 day) was 68.8 mg/dL and the TG (time 28 day) was 151.4 mg/dL. The TP (time 28 day) was 6.2 g/dL and the gamma-GTP (time 28 day) was 0.8 IU/L.
